The values that follow are results of earlier work, collected in paper PMC12483202, “Pharmacokinetic profile of oral firocoxib in the koala (Phascolarctos cinereus)” (PLOS One, 2025).

Read-outs that look alike come from different tables or passages of the source.

On the set-up of data set [1]: method as in ref [6] of S9 Table. Particulars: Pigs (7); PO 4.0 mg/kg; ref [6] of S9 Table; cited from earlier work.
On the set-up of data set [2]: method as in ref [8] of S9 Table. Particulars: Goats (10), ref [8] of S9 Table, cited from earlier work.
Data set [3] relates to urate crystal-induced synovitis in dogs. On the set-up: method as in ref 38 = [38]; 38 Dauteloup C , Pichou C , Beugnet F . Assessment of the efficacy of firocoxib and robenacoxib in an induced synovitis model of acute arthritis in dogs . International Journal of Applied Research in. The following applies: cited from earlier work.

As usually defined, the Cmax is the maximum level reached in the sampled fluid or tissue. As usually defined, the Tmax is the time from dosing to the highest level. As to `CC1(C)OC(=O)C(OCC2CC2)=C1c1ccc(S(C)(=O)=O)cc1` [firocoxib], the Cmax is 60 ng/mL in data set [1] and 139 ng/mL in data set [2] (PO 0.5 mg/kg). Besides, the Tmax in data set [1] is 7.41 h; in data set [2] (PO 0.5 mg/kg), 0.77 h. For the same molecule, the t1/2 in data set [1] is 24.075 h; in data set [2] (IV 0.5 mg/kg), 26.41 h; in data set [2] (PO 0.5 mg/kg), 21.51 h. For the same molecule, the “peak vertical force and weight-bearing capacity” value in data set [3] was “efficacy in improving the peak vertical force and weight-bearing capacity”.
